Where “and” joins values, the source holds several entries; their conditions need not be identical. Equal values may be shown once. After the bases stand the sugars from the 5' end (letter, count) and the backbone: PS all phosphorothioate, else s phosphorothioate and o phosphodiester by linkage. Methylation of C is not given here. k = constrained ethyl (cEt); d = 2'-deoxy (DNA)
Target: MALAT1
Settings: ASO, A431, 0.005 µM

Sequence	target mRNA inhibition
TTCTGAACCGGAGCAG (sugars k3 d10 k3, PS)	23%
GAACCCCGTCCTGGAA (sugars k3 d10 k3, PS)	-18%
CTTGACAAGCAATTAA (sugars k3 d10 k3, PS)	30%
TATCACTCAGCTGGAT (sugars k3 d10 k3, PS)	34%
TTGGTTACCAATAATT (sugars k3 d10 k3, PS)	24%
TAGGCCATCATACTGC (sugars k3 d10 k3, PS)	6%
CATGCAATACTGCAGA (sugars k3 d10 k3, PS)	15%
TCACAAGGCAAATCGC (sugars k3 d10 k3, PS)	7%
GCTGTGGTTTTAATAC (sugars k3 d10 k3, PS)	49% and 57%
TCAGGGTTATGCTTAT (sugars k3 d10 k3, PS)	64% and 59%
CCCAACCGTAACAGGC (sugars k3 d10 k3, PS)	22%
TAGTAACCTATTGACT (sugars k3 d10 k3, PS)	-36%
CTGCGGCCCCCCAGTT (sugars k3 d10 k3, PS)	25%
TATCAATTCACCAAGG (sugars k3 d10 k3, PS)	1%
GCTCACATGCCAGTTA (sugars k3 d10 k3, PS)	32%
GCCAACACAGTTTGCT (sugars k3 d10 k3, PS)	30%
TTTACTTGCCAACAGA (sugars k3 d10 k3, PS)	27%
CCAGTTCAATACTTTC (sugars k3 d10 k3, PS)	13%
TAGACGGAGAACAACT (sugars k3 d10 k3, PS)	29%
CGCTTAAGAGGGCAGG (sugars k3 d10 k3, PS)	12%
TTTAAAAAGGCTCGAT (sugars k3 d10 k3, PS)	28%

Sequence	target mRNA inhibition
CCAAGAACTAGCACCT (sugars k3 d10 k3, PS)	-22%
GCCGCCTTTGTGAGGG (sugars k3 d10 k3, PS)	25%
CATAAACAATGCACTA (sugars k3 d10 k3, PS)	14%
TCCACCCCCACGCCAA (sugars k3 d10 k3, PS)	-9%
TGCAAGTTAAACTTAT (sugars k3 d10 k3, PS)	25%
GGTTATGCTTATTCCC (sugars k3 d10 k3, PS)	37%
CGACTTGCTCCCAAGA (sugars k3 d10 k3, PS)	22%
AAAACTTATCTGCGGT (sugars k3 d10 k3, PS)	54% and 41%
AGTAACTACCAGCCAT (sugars k3 d10 k3, PS)	45%
CAGACCAACCCCCAGT (sugars k3 d10 k3, PS)	-7%
CTTTTTAAAAGATCGC (sugars k3 d10 k3, PS)	31%
TATAGCATCTGTGGAA (sugars k3 d10 k3, PS)	20%
AAGCATTCCTTCGGAT (sugars k3 d10 k3, PS)	-8%
ATTGGGAGTTACTTGC (sugars k3 d10 k3, PS)	63% and 85%
AAAGATCGCCTTCAAA (sugars k3 d10 k3, PS)	32%
ACATTGCCTACCACTC (sugars k3 d10 k3, PS)	16%
GCGGCCCCCCAGTTGC (sugars k3 d10 k3, PS)	-16%
CTAAGACTTTAAGTTC (sugars k3 d10 k3, PS)	27%
GGATAAAAGCAGCTCC (sugars k3 d10 k3, PS)	32%
AACAGGTCATCTATTC (sugars k3 d10 k3, PS)	33%
AGCCTTCGGTGCCTTT (sugars k3 d10 k3, PS)	5%

Sequence	target mRNA inhibition
CTGTTACACCTTGAGT (sugars k3 d10 k3, PS)	33%
AATCGCCATGGAAAGC (sugars k3 d10 k3, PS)	-4%
TCAATCACAAATACGA (sugars k3 d10 k3, PS)	30%
CCAAATCGCACTGGCT (sugars k3 d10 k3, PS)	16%
TTACACTGCTCTGGGT (sugars k3 d10 k3, PS)	2%
CCACAAGGATCCAAGC (sugars k3 d10 k3, PS)	-20%
CCTGCCTTAAAGTTAC (sugars k3 d10 k3, PS)	20%
CGGGCTGCAGGCTGCG (sugars k3 d10 k3, PS)	14%
TGTATATAGTTCAAAG (sugars k3 d10 k3, PS)	9%
TGCAGGCAAATTAATG (sugars k3 d10 k3, PS)	11%
ACTCTAATCACTGTCA (sugars k3 d10 k3, PS)	35%
TCAAGCATTCCTTCGG (sugars k3 d10 k3, PS)	73% and 67%
CCATAATTGTAGTTAA (sugars k3 d10 k3, PS)	7%
ACCGGAGCAGGAAGAA (sugars k3 d10 k3, PS)	4%
TGAAAACCCACTCTTG (sugars k3 d10 k3, PS)	0%
TCTTAATCAGTTACAA (sugars k3 d10 k3, PS)	9%
TTGTTCGAGAAATCGG (sugars k3 d10 k3, PS)	5%
ACTTTAAATTGGTAGC (sugars k3 d10 k3, PS)	28%
TATATTTAAGGCCTTC (sugars k3 d10 k3, PS)	45%
CTGGTTATGACTCAGA (sugars k3 d10 k3, PS)	1%
TCTAATAGCAGCGGGA (sugars k3 d10 k3, PS)	16%

Sequence	target mRNA inhibition
TAAATTGATGGGCTTT (sugars k3 d10 k3, PS)	37%
TTATCTGTTAACAGCT (sugars k3 d10 k3, PS)	31%
GCCTCTATTGCCATGT (sugars k3 d10 k3, PS)	30%
ATGCCCACAAGGATCC (sugars k3 d10 k3, PS)	33%
GTTACCTTGAAACCGA (sugars k3 d10 k3, PS)	47%
AAGTAGACCAACTAAG (sugars k3 d10 k3, PS)	-22%
CAGTTATATTAGGTTC (sugars k3 d10 k3, PS)	8%
CCAACTGCTTGCAGTC (sugars k3 d10 k3, PS)	25%
CGGTTGAGAAGTGGCA (sugars k3 d10 k3, PS)	-11%
CTAACATGCAATACTG (sugars k3 d10 k3, PS)	1%
TAAGTTTTCAGCAGTA (sugars k3 d10 k3, PS)	-14%
TCCACTTGATCCCAAC (sugars k3 d10 k3, PS)	47% and 56%
CTCCATGAAGAAGCTT (sugars k3 d10 k3, PS)	49%
CAGTTCAATACTTTCC (sugars k3 d10 k3, PS)	45%
GTTCAAAGATATTGTG (sugars k3 d10 k3, PS)	0%
ACTTATCTGTTAACAG (sugars k3 d10 k3, PS)	25%
ATGTACTCAGCTTCAA (sugars k3 d10 k3, PS)	44%
CAATATTTGCCCCTCC (sugars k3 d10 k3, PS)	30%

Reference: the OligoGym collection
